# Measurements: patent US4929626A, “α-substituted 4-(quinolin-2-yl-methoxy)phenylacetic acids and esters and lipoxygenase inhibition therewith” (Bayer Aktiengesellschaft, priority 1988, dated 1990)
# Counter-ions that a name gives are not always drawn.
# How the values were obtained:
# lipoxygenase = test: Lipoxygenase inhibition: release of leukotriene B4 (LTB4) by polymorphonuclear rat leukocytes (PMN) after Ca ionophore, reverse phase HPLC; type: cell-based
# Procedure: (§1) The pharmacological activity data of the substances according to the invention are determined by the following method: As a measure of the lipoxygenase inhibition, the release of leukotriene B4 (LTB4) by polymorphonuclear rat leukocytes (PMN) was determined after addition of substances and Ca ionophore by means of reverse phase HPLC according to Borgeat, P. et al., Proc. Nat. Acad. Sci. 76, 2148-2152 (1979). The in vivo activity of the compounds was determined using the mouse ear inflammation model according to Young, J. M. et al., J. of Investigative Dermatology 82, 367-371 (1984).
# mouse ear inflammation = test: Mouse ear inflammation model (in vivo activity); details: 100 mg/kg p.o.
# Procedure: as §1
Structure (SMILES),IC50 (lipoxygenase),Inhibition of inflammation % (mouse ear inflammation)
"CCCCCC(O)c1cccc(OCc2ccc3ccccc3n2)c1 (stereo not shown) [2-[3-(1-hydroxyhexyl)phenoxymethyl]quinoline, reference compound]",200 nM,24%
"CCCCCC(C(=O)OC)c1ccc(OCc2ccc3ccccc3n2)cc1 (stereo not shown) [Example 10, Methyl 2-[4-(quinolin-2-yl-methoxy)phenyl]heptanoate]",,61%
"C/C=C/CC(C(=O)OC)c1ccc(OCc2ccc3ccccc3n2)cc1 (stereo not shown) [Example 12, Methyl E-2-[4-(quinolin-2-yl-methoxy)phenyl]-4-hexenoate]",,59%
"CCCCC(C(=O)O)c1ccc(OCc2ccc3ccccc3n2)cc1 (stereo not shown) [Example 20, 2-[4-(Quinolin-2-yl-methoxy)phenyl]caproic acid]",55 nM,68%
"CC(C)=CCC(C(=O)O)c1ccc(OCc2ccc3ccccc3n2)cc1 (stereo not shown) [Example 22, 2-[4-(Quinolin-2-yl-methoxy)phenyl]-5-methyl-4-hexenoic acid]",,77%
"CCCCC(C(=O)OCC(=O)OC)c1ccc(OCc2ccc3ccccc3n2)cc1 (stereo not shown) [Example 27, Methoxycarbonylmethyl 2-[4-(quinolin-2-yl-methoxy)phenyl]caproate hydrochloride]",63 nM,
"CCCCC(C(=O)OCC(=O)O)c1ccc(OCc2ccc3ccccc3n2)cc1 (stereo not shown) [Example 29, Carboxymethyl 2-[4-(quinolin-2-yl-methoxy)phenyl]caproate]",55 nM,72%
